The results in this text go back to US20230406864A1, “7-AZOLE SUBSTITUTED 2-AMINOQUINAZOLINE INHIBITORS OF HPK1” (MERCK SHARP & DOHME LLC, priority 2020, published 2023).

For this experiment, the target named is T1, Human HPK1, catalytic domain (Homo sapiens, UniProt Q92918).
T1 construct: purchased Cama (so in the source)
T1 sequence (Q92918 1-346): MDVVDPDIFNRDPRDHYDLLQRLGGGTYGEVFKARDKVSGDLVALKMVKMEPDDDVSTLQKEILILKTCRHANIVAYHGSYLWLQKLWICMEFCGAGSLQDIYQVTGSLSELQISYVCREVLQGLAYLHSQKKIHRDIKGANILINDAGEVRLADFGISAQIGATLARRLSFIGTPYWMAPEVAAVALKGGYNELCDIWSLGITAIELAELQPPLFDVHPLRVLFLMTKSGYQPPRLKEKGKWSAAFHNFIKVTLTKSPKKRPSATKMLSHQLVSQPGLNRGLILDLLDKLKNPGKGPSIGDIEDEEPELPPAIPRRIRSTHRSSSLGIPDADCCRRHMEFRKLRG
Description: HPK1-SLP76 TR-FRET assay. The settings on record: HPK1 kinase domain 0.075 nM; full length SLP-76 10 nM; ATP 10 μM; 30 min preincubation; 60 min reaction; room temperature. The format is biochemical.

Molecules are shown by their SMILES.

In turn, `Cc1c(-c2cc3nc(Nc4cnn(C5CCN(C)C5=O)c4)ncc3c(N)c2F)cnc2c1NCCO2` (single isomer, unassigned) [Example 2-19, (S or R)-3-(4-{[5-amino-6-fluoro-7-(8-methyl-2,3-dihydro-1H-pyrido[2,3-b][1,4]oxazin-7-yl)quinazolin-2-yl]amino}-1H-pyrazol-1-yl)-1-methylpyrrolidin-2-one] returned an IC50 of 0.15 nM.

`Cc1c(-c2cc3nc(Nc4cnn(C5CCN(C)C5=O)c4)ncc3c(N)c2F)cnc2c1NCCO2` (single isomer, unassigned) [Example 2-21, (S or R)-3-(4-{[5-amino-6-fluoro-7-(8-methyl-2,3-dihydro-1H-pyrido[2,3-b][1,4]oxazin-7-yl)quinazolin-2-yl]amino}-1H-pyrazol-1-yl)-1-methylpyrrolidin-2-one] came in with an IC50 of 0.35 nM.

In the case of `Cc1c(-c2ccc3cnc(Nc4cnn(C5COC5)c4)nc3c2)cnc2c1NCCO2` [Example 1-1, 7-(8-methyl-2,3-dihydro-1H-pyrido[2,3-b][1,4]oxazin-7-yl)-N-[1-(oxetan-3-yl)-1H-pyrazol-4-yl]quinazolin-2-amine], the IC50 turned out to be 1.2 nM.

Turning to `Cc1c(-c2ccc3cnc(Nc4cnn(C5CC6(C5)CN(C5(C)COC5)C6)c4)nc3c2)cnc2c1NCCO2` [Example 1-2, 7-(8-methyl-2,3-dihydro-1H-pyrido[2,3-b][1,4]oxazin-7-yl)-N-{1-[2-(3-methyloxetan-3-yl)-2-azaspiro[3.3]heptan-6-yl]-1H-pyrazol-4-yl}quinazolin-2-amine], the half-maximal inhibitory concentration (IC50) came out at 0.22 nM.

`CCC(=O)N1CC(n2cc(Nc3ncc4ccc(-c5cnc6c(c5C)NCCO6)cc4n3)cn2)C1` [Example 1-3, 1-[3-(4-{[7-(8-methyl-2,3-dihydro-1H-pyrido[2,3-b][1,4]oxazin-7-yl)quinazolin-2-yl]amino}-1H-pyrazol-1-yl)azetidin-1-yl]propan-1-one]: the IC50 was 0.26 nM.

In the case of `Cc1c(-c2ccc3cnc(Nc4cc5n(n4)CC(=O)N(C)CC54CC4)nc3c2)cnc2c1NCCO2` [Example 1-4, 6′-methyl-2′-{[7-(8-methyl-2,3-dihydro-1H-pyrido[2,3-b][1,4]oxazin-7-yl)quinazolin-2-yl]amino}-5′,6′-dihydrospiro[cyclopropane-1,4′-pyrazolo[1,5-d][1,4]diazepin]-7′(8′H)-one], the half-inhibitory concentration (IC50) stood at 5.3 nM.

Regarding `Cc1c(-c2ccc3cnc(Nc4cnn(C)c4)nc3c2)cnc2c1NCCO2` [Example 1-5, 7-(8-methyl-2,3-dihydro-1H-pyrido[2,3-b][1,4]oxazin-7-yl)-N-(1-methyl-1H-pyrazol-4-yl)quinazolin-2-amine], the IC50 came to 0.71 nM.

Regarding `Cc1c(-c2ccc3cnc(Nc4cc5n(n4)CCN(C(C)C)C(=O)C5)nc3c2)cnc2c1NCCO2` [Example 1-7, 2-{[7-(8-methyl-2,3-dihydro-1H-pyrido[2,3-b][1,4]oxazin-7-yl)quinazolin-2-yl]amino}-6-(propan-2-yl)-7,8-dihydro-4H-pyrazolo[1,5-d][1,4]diazepin-5(6H)-one], the midpoint of inhibition, the IC50, lay at 0.34 nM.

`Cc1c(-c2ccc3cnc(Nc4cc5n(n4)CCN(CC(C)(C)O)C(=O)C5)nc3c2)cnc2c1NCCO2` [Example 1-8, 6-(2-hydroxy-2-methylpropyl)-2-((7-(8-methyl-2,3-dihydro-1H-pyrido[2,3-b][1,4]oxazin-7-yl)quinazolin-2-yl)amino)-7,8-dihydro-4H-pyrazolo[1,5-d][1,4]diazepin-5(6H)-one] registered an IC50 of 0.675 nM.

In the case of `CCC(=O)N1CC(n2cc(Nc3ncc4c(N)c(F)c(-c5cnc6c(c5C)NCCO6)cc4n3)cn2)C1` [Example 2-1, 1-[3-(4-{[5-amino-6-fluoro-7-(8-methyl-2,3-dihydro-1H-pyrido[2,3-b][1,4]oxazin-7-yl)quinazolin-2-yl]amino}-1H-pyrazol-1-yl)azetidin-1-yl]propan-1-one], the IC50 turned out to be 0.42 nM.

In turn, `Cc1c(-c2cc3nc(Nc4cnn(C5CC6(C5)CN(C5(C)COC5)C6)c4)ncc3c(N)c2F)cnc2c1NCCO2` [Example 2-2, 6-fluoro-7-(8-methyl-2,3-dihydro-1H-pyrido[2,3-b][1,4]oxazin-7-yl)-N~2~-{1-[2-(3-methyloxetan-3-yl)-2-azaspiro[3.3]heptan-6-yl]-1H-pyrazol-4-yl}quinazoline-2,5-diamine] registered an IC50 of 0.14 nM.

Regarding `Cc1c(-c2cc3nc(Nc4cnn(C5CCN(C6(C)COC6)CC5)c4)ncc3c(N)c2F)cnc2c1NCCO2` [Example 2-3, 6-fluoro-7-(8-methyl-2,3-dihydro-1H-pyrido[2,3-b][1,4]oxazin-7-yl)-N~2~-{1-[1-(3-methyloxetan-3-yl)piperidin-4-yl]-1H-pyrazol-4-yl}quinazoline-2,5-diamine], the IC50 turned out to be 0.12 nM.

For the compound `Cc1c(-c2cc3nc(Nc4cnn(C5CC6(CNC6)C5)c4)ncc3c(N)c2F)cnc2c1NCCO2` [Example 2-4, N~2~-[1-(2-azaspiro[3.3]heptan-6-yl)-1H-pyrazol-4-yl]-6-fluoro-7-(8-methyl-2,3-dihydro-1H-pyrido[2,3-b][1,4]oxazin-7-yl)quinazoline-2,5-diamine], the IC50 stood at 0.47 nM.

`Cc1c(-c2cc3nc(Nc4cnn(C5CNC5)c4)ncc3c(N)c2F)cnc2c1NCCO2` [Example 2-5, N~2~-[1-(azetidin-3-yl)-1H-pyrazol-4-yl]-6-fluoro-7-(8-methyl-2,3-dihydro-1H-pyrido[2,3-b][1,4]oxazin-7-yl)quinazoline-2,5-diamine] came in with an IC50 of 0.29 nM.

On to `Cc1c(-c2cc3nc(Nc4cnn(CC5CC5)c4)ncc3c(N)c2F)cnc2c1NCCO2` [Example 2-6, N~2~-[1-(cyclopropylmethyl)-1H-pyrazol-4-yl]-6-fluoro-7-(8-methyl-2,3-dihydro-1H-pyrido[2,3-b][1,4]oxazin-7-yl)quinazoline-2,5-diamine], for which half-maximal inhibition (IC50) was put at 0.14 nM.

Take `Cc1c(-c2cc3nc(Nc4cnn(CC(F)(F)F)c4)ncc3c(N)c2F)cnc2c1NCCO2` [Example 2-7, 6-fluoro-7-(8-methyl-2,3-dihydro-1H-pyrido[2,3-b][1,4]oxazin-7-yl)-N~2~-[1-(2,2,2-trifluoroethyl)-1H-pyrazol-4-yl]quinazoline-2,5-diamine]: the IC50 amounted to 0.26 nM.

Regarding `Cc1c(-c2cc3nc(Nc4cnn(C5(C)CC5)c4)ncc3c(N)c2F)cnc2c1NCCO2` [Example 2-8, 6-fluoro-N~2~-[1-(1-methylcyclopropyl)-1H-pyrazol-4-yl]-7-(8-methyl-2,3-dihydro-1H-pyrido[2,3-b][1,4]oxazin-7-yl)quinazoline-2,5-diamine], the IC50 came to 0.088 nM.

`Cc1c(-c2cc3nc(Nc4cnn(C5CC5)c4)ncc3c(N)c2F)cnc2c1NCCO2` [Example 2-9, N~2~-(1-cyclopropyl-1H-pyrazol-4-yl)-6-fluoro-7-(8-methyl-2,3-dihydro-1H-pyrido[2,3-b][1,4]oxazin-7-yl)quinazoline-2,5-diamine]: the IC50 is 0.14 nM.

In the case of `Cc1c(-c2cc3nc(Nc4cnn(C)c4)ncc3c(N)c2F)cnc2c1NCCO2` [Example 2-10, 6-fluoro-7-(8-methyl-2,3-dihydro-1H-pyrido[2,3-b][1,4]oxazin-7-yl)-N~2~-(1-methyl-1H-pyrazol-4-yl)quinazoline-2,5-diamine], half-maximal inhibition (IC50) required 0.13 nM.

Turning to `Cc1c(-c2cc3nc(Nc4cnn(C5CCNCC5)c4)ncc3c(N)c2F)cnc2c1NCCO2` [Example 2-11, 6-fluoro-7-(8-methyl-2,3-dihydro-1H-pyrido[2,3-b][1,4]oxazin-7-yl)-N~2~-[1-(piperidin-4-yl)-1H-pyrazol-4-yl]quinazoline-2,5-diamine], the midpoint of inhibition, the IC50, lay at 0.071 nM.

`Cc1c(-c2cc3nc(Nc4cnn(Cc5ccccc5)c4)ncc3c(N)c2F)cnc2c1NCCO2` [Example 2-12, N~2~-(1-benzyl-1H-pyrazol-4-yl)-6-fluoro-7-(8-methyl-2,3-dihydro-1H-pyrido[2,3-b][1,4]oxazin-7-yl)quinazoline-2,5-diamine] returned a half-inhibitory concentration (IC50) of 2.8 nM.

Compound `Cc1c(-c2cc3nc(Nc4cnn(CC(C)C)c4)ncc3c(N)c2F)cnc2c1NCCO2` [Example 2-13, 6-fluoro-7-(8-methyl-2,3-dihydro-1H-pyrido[2,3-b][1,4]oxazin-7-yl)-N~2~-[1-(2-methylpropyl)-1H-pyrazol-4-yl]quinazoline-2,5-diamine] displayed a half-maximal inhibitory concentration (IC50) of 0.77 nM.

On to `Cc1c(-c2cc3nc(Nc4cnn(C(C)C)c4)ncc3c(N)c2F)cnc2c1NCCO2` [Example 2-14, 6-fluoro-7-(8-methyl-2,3-dihydro-1H-pyrido[2,3-b][1,4]oxazin-7-yl)-N~2~-[1-(propan-2-yl)-1H-pyrazol-4-yl]quinazoline-2,5-diamine], for which the midpoint of inhibition, the IC50, lay at 0.16 nM.

`COC(=O)C12CC(n3cc(Nc4ncc5c(N)c(F)c(-c6cnc7c(c6C)NCCO7)cc5n4)cn3)(C1)C2` [Example 2-15, methyl 3-(4-{[5-amino-6-fluoro-7-(8-methyl-2,3-dihydro-1H-pyrido[2,3-b][1,4]oxazin-7-yl)quinazolin-2-yl]amino}-1H-pyrazol-1-yl)bicyclo[1.1.1]pentane-1-carboxylate]: 0.22 nM corresponded to half-maximal inhibition (IC50).

Regarding `CCn1ncc(Nc2ncc3c(N)c(F)c(-c4cnc5c(c4C)NCCO5)cc3n2)c1C` [Example 2-16, N~2~-(1-ethyl-5-methyl-1H-pyrazol-4-yl)-6-fluoro-7-(8-methyl-2,3-dihydro-1H-pyrido[2,3-b][1,4]oxazin-7-yl)quinazoline-2,5-diamine], half-maximal inhibition (IC50) required 0.51 nM.

On to `Cc1cc(Nc2ncc3c(N)c(F)c(-c4cnc5c(c4C)NCCO5)cc3n2)sn1` [Example 2-17, 6-fluoro-7-(8-methyl-2,3-dihydro-1H-pyrido[2,3-b][1,4]oxazin-7-yl)-N~2~-(3-methyl-1,2-thiazol-5-yl)quinazoline-2,5-diamine], for which it took 0.38 nM to reach half-maximal inhibition (IC50).

One may read the IC50 as the concentration that inhibits the measured activity by half. A low value points to greater potency.
